Reference: patent US8563542B2 (Cyclacel Limited, priority 2007, dated 2013)

Legend:
[1] = molecular target: T1, AA (Homo sapiens, UniProt O14965); assay: AA IC50 (Table 1; no method given); assay type: biochemical; conditions: Table 2, AurA IC50; class symbols; read-out: AurA IC50
T1 sequence (O14965 1-403): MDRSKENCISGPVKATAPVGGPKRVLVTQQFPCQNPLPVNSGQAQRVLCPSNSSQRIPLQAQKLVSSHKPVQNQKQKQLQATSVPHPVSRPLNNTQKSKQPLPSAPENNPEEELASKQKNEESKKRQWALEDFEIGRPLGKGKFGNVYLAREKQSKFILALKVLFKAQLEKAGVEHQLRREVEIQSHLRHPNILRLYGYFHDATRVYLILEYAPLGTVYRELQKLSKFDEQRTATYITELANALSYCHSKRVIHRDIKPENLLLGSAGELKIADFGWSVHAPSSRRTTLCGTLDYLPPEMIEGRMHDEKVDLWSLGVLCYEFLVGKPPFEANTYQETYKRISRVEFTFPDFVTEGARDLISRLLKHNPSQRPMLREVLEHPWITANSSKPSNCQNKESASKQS

[2] = molecular target: PLK1 (Homo sapiens, UniProt P53350); assay: PLK1 protein kinase assay (CDC25C phosphorylation, [γ-32P]-ATP); assay type: biochemical; conditions: Table 2, PLK1 IC50; class symbols; read-out: PLK1 IC50
Sequence of PLK1 (P53350 whole entry): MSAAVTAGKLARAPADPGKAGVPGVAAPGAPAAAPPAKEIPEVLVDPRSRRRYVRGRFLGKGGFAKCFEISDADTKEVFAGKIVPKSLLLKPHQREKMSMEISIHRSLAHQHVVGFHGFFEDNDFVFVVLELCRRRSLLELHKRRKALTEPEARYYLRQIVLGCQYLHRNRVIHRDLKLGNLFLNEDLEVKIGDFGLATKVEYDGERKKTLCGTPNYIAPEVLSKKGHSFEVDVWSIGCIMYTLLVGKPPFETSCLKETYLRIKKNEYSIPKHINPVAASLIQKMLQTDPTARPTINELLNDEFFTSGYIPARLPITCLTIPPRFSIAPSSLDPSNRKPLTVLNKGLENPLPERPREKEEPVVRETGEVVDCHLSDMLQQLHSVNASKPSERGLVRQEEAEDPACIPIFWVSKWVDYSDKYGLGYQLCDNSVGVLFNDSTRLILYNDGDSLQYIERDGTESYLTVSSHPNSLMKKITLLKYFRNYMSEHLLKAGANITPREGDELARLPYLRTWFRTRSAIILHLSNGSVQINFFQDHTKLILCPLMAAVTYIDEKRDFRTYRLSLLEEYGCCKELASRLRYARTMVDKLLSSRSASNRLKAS

Structure (SMILES)	IC50 [1] [µM]	IC50 [2] [µM]
COCCNS(=O)(=O)c1ccc(Nc2ncc3c(n2)N(C2CCCC2)CCC(=O)N3C)cc1 [compound 104, 4-(9-Cyclopentyl-5-methyl-6-oxo-6,7,8,9-tetrahydro-5H-pyrimido[4,5-b][1,4]diazepin-2-ylamino)-N-(2-methoxy-ethyl)-benzenesulfonamide]	< 0.1	< 10
CN1C(=O)CCN(C2CCCC2)c2nc(Nc3cccc(S(=O)(=O)N4CCCC4)c3)ncc21 [compound 109, 9-Cyclopentyl-5-methyl-2-[3-(pyrrolidine-1-sulfonyl)-phenylamino]-5,7,8,9-tetrahydro-pyrimido[4,5-b][1,4]diazepin-6-one]	< 1	< 1
CN1C(=O)CCN(C2CCCC2)c2nc(Nc3cccc(S(=O)(=O)NCc4ccccc4)c3)ncc21 [compound 110, N-Benzyl-3-(9-cyclopentyl-5-methyl-6-oxo-6,7,8,9-tetrahydro-5H-pyrimido[4,5-b][1,4]diazepin-2-ylamino)-benzenesulfonamide]	< 1	< 10
CC(C)N1CCC(=O)N(C)c2cnc(Nc3ccc4c(c3)CS(=O)(=O)C4)nc21 [compound 115, 2-(2,2-Dioxo-2,3-dihydro-1H-2lambda*6*- benzo[c]thiophen-5-ylamino)-9-isopropyl-5-methyl-5,7,8,9-tetrahydro-pyrimido[4,5-b][1,4]diazepin-6-one]	< 0.1	< 10
CN1C(=O)C2(CCC2)CN(C2CCCC2)c2nc(Nc3ccc4c(c3)CS(=O)(=O)C4)ncc21 [compound 117, (9-Cyclopentyl-2-(2,2-dioxo-2,3-dihydro-1H-2lambda*6*-benzo[c]thiophen-5-ylamino)5-methyl-6-oxo-6,7,8,9-tetrahydro-5H-spiro[pyrimido[4,5-b][1,4]diazepin-3,1′-cyclobutane+]	< 1	< 1
CN1C(=O)CCN(C2CCCC2)c2nc(Nc3ccc(Cl)cc3)ncc21 [compound 123, 2-(4-Chloro-phenylamino)-9-cyclopentyl-5-methyl-5,7,8,9-tetrahydro-pyrimido[4,5-b][1,4]diazepin-6-one]	< 1	< 1
Cc1cc2cc(Nc3ncc4c(n3)N(C3CCCC3)CCC(=O)N4C)ccc2[nH]1 [compound 125, 9-Cyclopentyl-5-methyl-2-(2-methyl-1H-indol-5-ylamino)-5,7,8,9-tetrahydro-pyrimido[4,5-b][1,4]diazepin-6-one]	< 0.1	< 1
CN1C(=O)CCN(C2CCCC2)c2nc(Nc3ccc4cc[nH]c4c3)ncc21 [compound 130, 9-Cyclopentyl-2-(1H-indo1-6-ylamino)-5-methyl-5,7,8,9-tetrahydro-pyrimido[4,5-b][1,4]diazepin-6-one]	< 1	< 10
COc1cc(C(=O)NCCCCO)ccc1Nc1ncc2c(n1)N(C1CCCC1)CCC(=O)N2C [compound 151, 4-(9-Cyclopentyl-5-methyl-6-oxo-6,7,8,9-tetrahydro-5H-pyrimido[4,5-b][1,4]diazepin-2-ylamino)-N-(4-hydroxy-butyl)-3-methoxy-benzamide]	< 10	< 1
CN1C(=O)CCN(C2CCCC2)c2nc(Nc3ccc(CCC(=O)O)cc3)ncc21 [compound 170, 3-[4-(9-Cyclopentyl-5-methyl-6-oxo-6,7,8,9-tetrahydro-5H-pyrimido[4,5-b][1,4]diazepin-2-ylamino)-phenyl]-propionic acid]	< 0.1	< 10

The next lines start with the values.

IC50 [1] [µM]	IC50 [2] [µM]	Structure (SMILES)
< 1	< 10	COCCNS(=O)(=O)c1cccc(Nc2ncc3c(n2)N(C2CCCC2)CCC(=O)N3C)c1 [compound 108, 3-(9-Cyclopentyl-5-methyl-6-oxo-6,7,8,9-tetrahydro-5H-pyrimido[4,5-b][1,4]diazepin-2-ylamino)-N-(2-methoxy-ethyl)-benzenesulfonamide]
< 0.1	< 10	C=CCN1CCC(=O)N(C)c2cnc(Nc3ccc4c(c3)CS(=O)(=O)C4)nc21 [compound 119, 9-Allyl-2-(2,2-dioxo-2,3-dihydro-1H-2lambda*6*-benzo[c]thiophen-5-ylamino)-5-methyl-5,7,8,9-tetrahydro-pyrimido[4,5-b][1,4]diazepin-6-one]
< 10	< 10	CN1C(=O)CCN(C2CCCC2)c2nc(NCc3ccco3)ncc21 [compound 124, 9-Cyclopentyl-2-[(furan-2-ylmethyl)-amino]-5-methyl-5,7,8,9-tetrahydro-pyrimido[4,5-b][1,4]diazepin-6-one]
< 10	< 1	CN1C(=O)CCN(C2CCCC2)c2nc(NCc3cccc4c3OCCO4)ncc21 [compound 128, 9-Cyclopentyl-2-[(2,3-dihydro-benzo[1,4]dioxin-5-ylmethyl)-amino]-5-methyl-5,7,8,9-tetrahydro-pyrimido[4,5-b][1,4]diazepin-6-one]
< 10	< 10	CN1C(=O)CCN(C2CCCC2)c2nc(NCc3ccc(-c4csnn4)cc3)ncc21 [compound 132, 9-Cyclopentyl-5-methyl-2-(4-[1,2,3]thiadiazol-4-yl-benzylamino)-5,7,8,9-tetrahydro-pyrimido[4,5-b][1,4]diazepin-6-one]
< 0.1	< 10	Cc1cccc(Nc2ncc3c(n2)N(C2CCCC2)CCC(=O)N3C)c1 [compound 137, 9-Cyclopentyl-5-methyl-2-m-tolylamino-5,7,8,9-tetrahydro-pyrimido[4,5-b][1,4]diazepin-6-one]
< 1	< 10	COc1cccc(Nc2ncc3c(n2)N(C2CCCC2)CCC(=O)N3C)c1 [compound 138, 9-Cyclopentyl-2-(3-methoxy-phenylamino)-5-methyl-5,7.8,9-tetrahydro-pyrimido[4,5-b][1,4]diazepin-6-one]
< 0.1	< 1	CN1C(=O)CCN(C2CCCC2)c2nc(Nc3ccc4[nH]ncc4c3)ncc21 [compound 139, 9-Cyclopentyl-2-(1H-indazol-5-ylamino)-5-methyl-5,7,8,9-tetrahydro-pyrimido[4,5-b][1,4]diazepin-6-one]
< 10	< 10	Cc1c(Nc2ncc3c(n2)N(C2CCCC2)CCC(=O)N3C)cccc1C(=O)NC1CCN(C)CC1 [compound 140, 3-(9-Cyclopentyl-5-methyl-6-oxo-6,7,8,9-tetrahydro-5H-pyrimido[4,5-b][1,4]diazepin-2-ylamino)-2-methyl-N-(1-methyl-piperidin-4-yl)-benzamide]
< 10	< 10	CN1C(=O)CCN(C2CCCC2)c2nc(Nc3cccc(S(=O)(=O)N4CCNCC4)c3)ncc21 [compound 146]
< 0.1	< 10	CC(=O)Nc1ccc(Nc2ncc3c(n2)N(C2CCCC2)CCC(=O)N3C)cc1 [compound 171, N-[4-(9-Cyclopentyl-5-methyl-6-oxo-6,7,8,9-tetrahydro-5H-pyrimido[4,5-b][1,4]diazepin-2-ylamino)-phenyl]-acetamide]
< 0.1	< 10	CN1C(=O)CCN(C2CCCC2)c2nc(Nc3ccc(CC(=O)O)cc3)ncc21 [compound 172, [4-(9-Cyclopentyl-5-methyl-6-oxo-6,7,8,9-tetrahydro-5H-pyrimido[4,5-b][1,4]diazepin-2-ylamino)-phenyl]-acetic acid]
